Results reported in PubChem BioAssay (NCI).
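Cultured in 96-well plates, cells were exposed to test compound for 48 hours across five concentrations. TGI denotes the concentration required for complete inhibition of growth.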

Assays:
Assay in all cases: growth of human tumour cells (NCI), 48 h
786-0 renal = system: 786-0 renal
A498 renal = system: A498 renal
A549 NSCLC = system: A549 NSCLC
BT-549 breast = system: BT-549 breast
CAKI-1 renal = system: CAKI-1 renal
CCRF-CEM leukemia = system: CCRF-CEM leukemia
COLO 205 colon = system: COLO 205 colon
DU-145 prostate = system: DU-145 prostate
EKVX NSCLC = system: EKVX NSCLC
HCT-116 colon = system: HCT-116 colon
HCT-15 colon = system: HCT-15 colon
HL-60(TB) leukemia = system: HL-60(TB) leukemia
HOP-62 NSCLC = system: HOP-62 NSCLC
HS 578T breast = system: HS 578T breast
HT29 colon = system: HT29 colon
IGROV1 ovarian = system: IGROV1 ovarian
K-562 leukemia = system: K-562 leukemia
KM12 colon = system: KM12 colon
LOX IMVI melanoma = system: LOX IMVI melanoma
M14 melanoma = system: M14 melanoma
MALME-3M melanoma = system: MALME-3M melanoma
MCF7 breast = system: MCF7 breast
MDA-MB-231 breast = system: MDA-MB-231 breast
MDA-MB-435 = system: MDA-MB-435
MDA-N = system: MDA-N
MOLT-4 leukemia = system: MOLT-4 leukemia
NCI-H226 lung = system: NCI-H226 lung
NCI-H460 lung = system: NCI-H460 lung
NCI-H522 lung = system: NCI-H522 lung
NCI/ADR-RES ovarian = system: NCI/ADR-RES ovarian
OVCAR-3 ovarian = system: OVCAR-3 ovarian
OVCAR-4 ovarian = system: OVCAR-4 ovarian
OVCAR-5 ovarian = system: OVCAR-5 ovarian
OVCAR-8 ovarian = system: OVCAR-8 ovarian
PC-3 prostate = system: PC-3 prostate
RPMI-8226 leukemia = system: RPMI-8226 leukemia
RXF 393 renal = system: RXF 393 renal
SF-268 CNS = system: SF-268 CNS
SF-295 CNS = system: SF-295 CNS
SF-539 CNS = system: SF-539 CNS
SK-MEL-2 melanoma = system: SK-MEL-2 melanoma
SK-MEL-28 melanoma = system: SK-MEL-28 melanoma
SK-MEL-5 melanoma = system: SK-MEL-5 melanoma
SK-OV-3 ovarian = system: SK-OV-3 ovarian
SN12C renal = system: SN12C renal
SNB-19 CNS = system: SNB-19 CNS
SNB-75 CNS = system: SNB-75 CNS
SR leukemia = system: SR leukemia
SW-620 colon = system: SW-620 colon
T-47D breast = system: T-47D breast
TK-10 renal = system: TK-10 renal
U251 CNS = system: U251 CNS
UACC-257 melanoma = system: UACC-257 melanoma
UACC-62 melanoma = system: UACC-62 melanoma
UO-31 renal = system: UO-31 renal

## Cc1ccnc(NC(=S)Nc2ccccc2Cl)c1
786-0 renal
  TGI: > 100 µM
A498 renal
  TGI: > 100 µM
A549 NSCLC
  TGI: > 100 µM
BT-549 breast
  TGI: > 100 µM
CAKI-1 renal
  TGI: > 100 µM
CCRF-CEM leukemia
  TGI: > 100 µM
COLO 205 colon
  TGI: > 100 µM
DU-145 prostate
  TGI: > 100 µM
EKVX NSCLC
  TGI: > 100 µM
HCT-116 colon
  TGI: > 100 µM
HCT-15 colon
  TGI: > 100 µM
HL-60(TB) leukemia
  TGI: > 100 µM
HOP-62 NSCLC
  TGI: > 100 µM
HS 578T breast
  TGI: > 100 µM
HT29 colon
  TGI: > 100 µM
IGROV1 ovarian
  TGI: > 100 µM
K-562 leukemia
  TGI: > 100 µM
KM12 colon
  TGI: > 100 µM
LOX IMVI melanoma
  TGI: > 100 µM
M14 melanoma
  TGI: > 100 µM
MALME-3M melanoma
  TGI: > 100 µM
MCF7 breast
  TGI: > 100 µM
MDA-MB-231 breast
  TGI: 45.7 µM
MDA-MB-435
  TGI: > 100 µM
MDA-N
  TGI: > 100 µM
MOLT-4 leukemia
  TGI: > 100 µM
NCI-H226 lung
  TGI: > 100 µM
NCI-H460 lung
  TGI: > 100 µM
NCI-H522 lung
  TGI: > 100 µM
NCI/ADR-RES ovarian
  TGI: > 100 µM
OVCAR-3 ovarian
  TGI: > 100 µM
OVCAR-4 ovarian
  TGI: > 100 µM
OVCAR-5 ovarian
  TGI: > 100 µM
OVCAR-8 ovarian
  TGI: > 100 µM
PC-3 prostate
  TGI: > 100 µM
RPMI-8226 leukemia
  TGI: > 100 µM
RXF 393 renal
  TGI: > 100 µM
SF-268 CNS
  TGI: > 100 µM
SF-295 CNS
  TGI: > 100 µM
SF-539 CNS
  TGI: > 100 µM
SK-MEL-2 melanoma
  TGI: > 100 µM
SK-MEL-28 melanoma
  TGI: > 100 µM
SK-MEL-5 melanoma
  TGI: > 100 µM
SK-OV-3 ovarian
  TGI: > 100 µM
SN12C renal
  TGI: > 100 µM
SNB-19 CNS
  TGI: > 100 µM
SNB-75 CNS
  TGI: 71.7 µM
SR leukemia
  TGI: > 100 µM
SW-620 colon
  TGI: > 100 µM
T-47D breast
  TGI: > 100 µM
TK-10 renal
  TGI: > 100 µM
U251 CNS
  TGI: > 100 µM
UACC-257 melanoma
  TGI: > 100 µM
UACC-62 melanoma
  TGI: > 100 µM
UO-31 renal
  TGI: > 100 µM
